In data set [1] the test system is BAEC, bEnd3, SB2, 3T3, BMDM and RAW264 cells. Nature of the data set: In vitro uptake of IR783-SFB nanoparticles (fluorescence microscopy). The class given is cell-based. Conditions: 2 h, 30 μg/ml particles or equivalent free dye. As for the experimental part:
Bone marrow derived macrophages (BMDM), RAW264 macrophages, and 3T3 fibroblasts did take up the nanoparticles efficiently. […] FIG. 4B depicts quantitative analysis of fluorescence intensity in the cell lines was conducted using ImageJ v1.40 (NIH, USA). The mean fluorescence intensities are expressed in arbitrary units per square micron. The increased uptake by endothelial cells and cancer cells as opposed to macrophages and fibroblasts is about 4 fold. FIG. 4C depicts confirmation of the differential uptake between cell lines, 3T3 fibroblasts (GFP) were co-cultured with SB2 liver cancer cells (RFP) to confluence and incubated with nanoparticles for 30 min. The cell morphology of the co-culture can be seen in bright light (upper left, DIC) and fluorescence channel (upper right).
The uptake of the sorafenib-IR783 nanoparticles (IR783-SFB) was tested in 6 cell types: endothelial cells (BAEC and bEnd3 cell line), liver HCC cells (SB2 cells, derived from the in vivo model), fibroblasts (3T3), and macrophages (BMDM and RAW264). The cells were incubated for 2 hours with 30 μg/ml and as a control with an equivalent amount of free IR783. The cells were washed and stained with Cell Mask (Life Sciences) for membrane staining and DAPI for nuclear staining. The cells were imaged with a florescence microscope equipped with an Indocyanine Green filter set, as depicted in FIGS. 4A-4B.

For data set [2], the system named is MYC-driven autochthonous murine hepatic tumor. Briefly: MYC/β-catenin driven liver tumor model: targeting and biodistribution. The format is in vivo, FVB mice. Conditions: near-IR fluorescence of livers 24 h after i.v. injection, sodium salt. The protocol:
Sorafenib-containing nanoparticles were tested in vivo for imaging and treatment of hepatocellular carcinoma in an orthotopic model. FVB mice were transfected by hydrodynamic injection on day 0 with plasmids to C-Myc and beta-catenin to inoculate liver tumors. FIG. 5A depicts mice bearing liver tumors and healthy mice were injected with IR783-SFB (for example, at 20 mg/kg) at day 21 after inoculation. After 24 hours the livers were extracted and imaged using an IVIS Preclinical In Vivo Imaging System (Perkin Elmer) in fluorescence imaging mode. […] The tumors were also imaged by their GFP expression (right panel). […] The GFP expression in the tumors was also imaged (right panel).
Next, the biodistribution of INPs in a MYC-driven murine hepatic tumor model was evaluated. To generate autochthonous liver tumors, Sleeping Beauty transposon vectors encoding c-Myc and mutant β-catenin (coupled to GFP) were hydrodynamically delivered into immunocompetent FVB mice along with a vector encoding Sleeping Beauty transposase as described herein.
Hydrodynamic transfection was performed. […] Tumors were evaluated using fluorescence imaging (IVIS imaging system, Xenogen Corp., Hopkinton, Mass.) and immunohistochemistry (H&E). Tumor volume was measured using a caliper.

The test system of data set [3] is endothelial cells; 3T3-GFP / SB2 co-culture. Nature of the data set: Photodynamic therapy in cell culture (NIR irradiation). The format is cell-based. Conditions: 30 min incubation, 1 min xenon lamp, imaged after 24 h. The protocol: The IR783-SFB nanoparticles were tested for the application of photodynamic therapy. The […] properties of the dyes may provide an added therapeutic benefit of the targeted nanoparticles. Endothelial and cancer cells were incubated with the nanoparticles for 30 min and then washed and exposed to NIR light from a Xenon lamp for 1 min. […] FIG. 8A depicts endothelial cells that were incubated for 30 min with NP and irradiated for 1 min with a xenon lamp (Xcite) using an ICG filter set (Chroma). […] After 24 h, the morphology of the irradiated area was altered and cells detached after washing (upper right).

Data set [4] deals with MYC-driven autochthonous murine hepatic tumor. Nature of the data set: MYC/β-catenin driven liver tumor model: anti-tumor efficacy. The format is in vivo, FVB mice. Conditions: 30 mg/kg sorafenib p.o. or as INP i.v., weekly for three weeks; endpoint about day 60. The protocol:
For example, here 20 FVB mice were administered a hydrodynamic injection on day 0 with plasmids to C-Myc and beta-catenin to initiate liver tumors. The efficacy of IR783-SFB was compared to oral SFB. Treatments started at day 21 after inoculation and were administrated once weekly for 3 weeks.
To test the therapeutic potential of the INPs in vivo, the anti-tumor efficacy of equivalent drug doses in the liver cancer mouse model described above were either delivered intravenously via INPs or the orally administered free drug. Sorafenib or sorafenib INPs were injected weekly over the course of three weeks. […] Furthermore, quantitative measures of liver weight, tumor volume, and GFP emission confirmed virtually complete tumor eradication in INP-treated livers (FIGS. 12D-12F).
Hydrodynamic transfection was performed. Specifically, 10 μg pT3-EF1a-c-myc, 10 μg pT3-EF1a-β-CateninT41A-IRES-GFP and CMV-SB13 Sleeping Beauty transposase (1:5 ratio) were mixed in sterile saline solution. A total volume of plasmid-saline solution mix corresponding to 10% of the body weight was injected into the lateral tail vein of 6- to 8-week old female FVB/N mice (Jackson Laboratory, Me., USA) within 5-7 seconds. […] Tumors were evaluated using fluorescence imaging (IVIS imaging system, Xenogen Corp., Hopkinton, Mass.) and immunohistochemistry (H&E). Tumor volume was measured using a caliper.

A short description of data set [5]: Nanoparticle formation with indocyanine IR783 by nano-precipitation (DLS / visual precipitation).

From patent US20200237670A1, “DYE-STABILIZED NANOPARTICLES AND METHODS OF THEIR MANUFACTURE AND THERAPEUTIC USE” (Memorial Sloan Kettering Cancer Center, priority 2015, published 2020) come the findings set out here.

On to `CC1(C)C(=CC=C2CCCC(C=CC3=[N+](CCCCS(=O)(=O)[O-])c4ccccc4C3(C)C)=C2Cl)N(CCCCS(=O)(=O)[O-])c2ccccc21.[Na+]` [IR783, 2-[2-[2-Chloro-3-[2-[1,3-dihydro-3,3-dimethyl-1-(4-sulfobutyl)-2H-indol-2-ylidene]-ethylidene]-1-cyclohexen-1-yl]-ethenyl]-3,3-dimethyl-1-(4-sulfobutyl)-3H-indolium hydroxide, inner salt sodium salt], for which, in data set [1], the “uptake (internalization) in cell lines” value was “does not internalize in the cells”. For the same compound, the results for the “accumulation in liver tumors” value in data set [2] (listed as free indocyanine) and in data set [2] were “did not accumulate in tumors” and “does not accumulate”, respectively. Besides, in data set [3], the “effect on cells after NIR irradiation” value was “no significant effect”.

`CNC(=O)c1cc(Oc2ccc(NC(=O)Nc3ccc(Cl)c(C(F)(F)F)c3)cc2)ccn1` [Sorafenib]: in data set [4], the “anti-tumor efficacy in liver tumor model” value was “multiple liver tumors”.

On to `Cc1onc(-c2ccccc2)c1-c1ccc(S(N)(=O)=O)cc1` [Valdecoxib], for which the “formation of nanoparticles with indocyanine” value in data set [5] is “did not”.
